The text below walks through data of US20060128014A1, “Compositions and methods for culturing stem cells” (priority 2002, published 2006).

Where no end group is shown, it is not given here.

The conditions of data set [1]: cited from earlier work.
Data set [2] relates to adult derived neural stem cells. Kind of data set: Proliferation of adult derived neural stem cells by increased cAMP (unpublished results). The data set is classed as cell-based. The conditions noted are these: increased levels of cAMP.
For another data set, the system named is hippocampal CA1 region. The conditions noted are these: cited from earlier work; for delayed neuronal death in the hippocampal CA1 region: transient forebrain ischemia.
For data set [3] the following is noted: experimental animals; cited from earlier work.
The subject of a further data set is adult neural stem cells. The data set is described as follows: Intracellular ATP assay (ViaLight kit) on cultured adult neural stem cells. The conditions noted are these: for maximal amplitudes of responses: vanadate and EGF each added alone, compared. The data set is classed as cell-based, mice. The procedure: Neurosphere cultures: The anterior lateral wall of the lateral ventricle of 5-6 week old mice was enzymatically dissociated in 0.8 mg/ml hyaluronidase and 0.5 mg/ml trypsin in DMEM containing 4.5 mg/ml glucose and 80 units/ml DNase at 37° C. for 20 min. The cells were gently triturated and mixed with three volumes of Neurosphere medium (DMEM/F12, B27 supplement, 125 mM HEPES pH7.4) containing 20 ng/ml EGF (unless otherwise stated), 100 units/ml penicillin and 100 _g/ml streptomycin. After passing through a 70 _m strainer, the cells were pelleted at 160×g for 5 min. The supernatant was subsequently removed and the cells resuspended in Neurosphere medium supplemented as above, plated out in culture dishes and incubated at 37° C. Neurospheres were ready to be split approximately 7 days after plating.
To split the neurospheres, they were collected by centrifugation at 160×g for 5 min. The conditioned supernatant (conditioned medium) was removed and saved. The neurospheres were resuspended in 0.5 ml Trypsin/EDTA in HBSS (1×), incubated at 37° C. for 2 min and triturated gently to aid dissociation. Following a further 3 min incubation at 37° C. and trituration, 3 volumes of ice cold NSPH-media-EGF were added to stop further trypsin activity. The cells were pelleted at 220×g for 4 min, and resuspended in a 1:1 mixture of fresh Neurosphere medium and conditioned medium. EGF was supplemented to 20 ng/ml and the culture plated out and incubated at 37° C.
Where stated, a minimal Neurosphere medium was used containing BIT supplement in place of B27 supplement.
Neurosphere assays: NSC, cultured as described above, from passage 2 were seeded in DMEM/F12 supplemented with B27 into a 96-well plate as single cells (10000 cells/well), to which agents were added at the concentrations indicated.
After 3 days of treatment, intracelluar ATP was measured using the ViaLight kit (BioWhittaker) according to the manufacturer's instructions.

The next data set concerns neural stem cells. Kind of data set: Sphere formation in presence of vanadate and in combination with PACAP. The conditions noted are these: DMEM/F12 with B27, after 7 days. The data set is classed as cell-based. The protocol:
Cells were isolated as described (see section 5.5.1). Aliquots of 1 ml cell suspension per well equivalent to one brain per well were plated in DMEM/F12 supplemented with B27.
10 uM Vanadate or 10 uM Vanadate +300 nM PACAP was added to the cultures. Fresh substances were added every second day. After 7 days sphereformation was observed.

The next data set deals with human neural stem cells. The data set is described as follows: Neurosphere formation of human neural stem cells. The data set is classed as cell-based. The procedure:
Culture of human neural stem cells: Human neural stem cells were isolated and cultured under adherent conditions according to the protocol described in Palmer et al., 2001, Nature 411(6833):42-43, modified to exclude the additives PDGF and cystatinC and using B27 supplement instead of BIT. The cells were cultured for 10-16 passages in DMEM/F12 with B27-supplement and EGF (20 ng/ml) and FGF-2 (20 ng/ml). Cells were detached with Trypsin/EDTA, rinsed three times and then replated in suspension culture plastic wells in DMEM/F12 and B27-supplement for 24 h without growth factors. Thereafter factors (Vanadate, EGF or EGF+FGF2) were added for one day.

Regarding `[Na+].[O]=[V](=[O])[O-]` [NaVO3], in data set [1] (oral), the “most common adverse effect” value is reported as “mild gastrointestinal intolerance”.
Turning to `COc1ccc(C2CNC(=O)C2)cc1OC1CCCC1` (centres unmarked) [rolipram], in data set [2], the proliferation result was “trigger proliferation”.
With `[Na+].[Na+].[Na+].[O]=[V]([O-])([O-])[O-]` [sodium orthovanadate], the “delayed neuronal death in the hippocampal CA1 region” value in the data set on hippocampal CA1 region is listed as “rescued cells from delayed neuronal death”.
Turning to `[O]=[V]([O-])([O-])[O-]` [vanadate], the neuroprotection result in the data set on hippocampal CA1 region (experimental animals) is given as “neuroprotective”. In data set [3], the blood glucose levels entry is given as “reduces blood glucose levels”. The “proliferative effect (intracellular ATP levels)” value in the data set with adult neural stem cells (added alone, growth media supplemented with BIT or B27, 3 days of treatment, FIG. 1) was “concentration dependent proliferative effect”. In addition, the “ATP-levels with EGF and increasing concentrations of vanadate” value with adult neural stem cells (in addition to EGF (3 nM), FIG. 7) is reported as “not significantly altered”. Moreover, the “proliferative effect in combination with EGF” value in the data set on adult neural stem cells (in the presence of EGF, supplement BIT or B27, FIGS. 2 and 3) is “additive”. Further, the “proliferative effect in combination with PACAP” value with adult neural stem cells (in the presence of PACAP, supplement BIT or B27, FIGS. 4, 5) was “additive”. Further, the “maximal amplitudes of responses” value in the data set on adult neural stem cells (FIGS. 2 and 3) was “equal in size”. The sphere formation entry with neural stem cells (10 uM Vanadate + 300 nM PACAP, FIG. 6b) is “Sphereforming capacity was noted”; with neural stem cells (10 uM Vanadate alone, FIG. 6a), “Sphereforming capacity was noted”; with human neural stem cells (10 uM, after 1 d, DMEM/F12 and B27-supplement, FIG. 8a) it was “formed numerous spheres”. Besides, in data set [1] (humans), the tolerability in humans result was “tolerated”. Moreover, the “effect in patients suffering from diabetes” value in data set [1] (patients suffering from diabetes) is given as “positive results”. Besides, in the data set with human neural stem cells (10 uM, after 1 d, FIG. 8a), the “adherence of the spheres” value was “virtually all spheres were free floating”.
On to “EGF: epidermal growth factor, protein growth factor”, for which, in the data set on adult neural stem cells (FIGS. 2 and 3), the “maximal amplitudes of responses” value is reported as “equal in size”.
Regarding FGF-2: protein growth factor, the “neurosphere formation with growth factors” value in the data set with human neural stem cells (growth factors added for one day, FIG. 8b and 8c) was “reduced neurosphere formation”.
In the case of IGF-1: insulinlike growth factor-1, the “delayed neuronal death in the hippocampal CA1 region” value in the data set with hippocampal CA1 region is “rescued cells from delayed neuronal death”.
For “PACAP: neuropeptide acting on cyclase activating GPCRs (HSDGIFTDSYSRYRKQMAVKKYLAAVLGKRYKQRVKNK; ends and bridges not checked; UniProt P18509 132-169, looked up)”, in data set [2], the proliferation entry is “trigger proliferation”.
